Source: the NIST ThermoML archive (doi:10.1021/je201211f)
Numbers after ± are expanded uncertainties.

Tests used:
[1] = 298.15 K, 101.33 kPa, Liquid; for viscosity: Capillary tube (Ostwald / Ubbelohde) method; for mass density: Vibrating tube method
[2] = refractive index (Na D-line) (dimensionless); details: 298.15 K; 101.33 kPa; Liquid; Standard Abbe refractometry
[3] = refractive index (Na D-line) (dimensionless); xn = mol fraction of the nth substance listed; details: 298.15 K, 101 kPa, Liquid
[4] = xn = mol fraction of the nth substance listed; details: 101 kPa, Liquid; for mass density: Vibrating tube method; for viscosity: Capillary tube (Ostwald / Ubbelohde) method

Cc1ccccc1C [1,2-dimethylbenzene]
Details | mass density [kg/m3] | refractive index | viscosity [mPa·s]
[1] | 875.57 ± 0.24 | – | 0.757 ± 0.009
[2] | – | 1.5024 ± 0.0008 | –

Cc1ccccc1C [1,2-dimethylbenzene] + CC(=O)O
[3]
Details | refractive index
x2 = 0.0852 | 1.4965 ± 0.0007
x2 = 0.1881 | 1.4875 ± 0.0007
x2 = 0.2447 | 1.4816 ± 0.0007
x2 = 0.3206 | 1.4747 ± 0.0007
x2 = 0.3894 | 1.4672 ± 0.0007
x2 = 0.4729 | 1.4579 ± 0.0007
x2 = 0.5569 | 1.4472 ± 0.0007
x2 = 0.636 | 1.4363 ± 0.0007
x2 = 0.7151 | 1.424 ± 0.0007
x2 = 0.8031 | 1.4099 ± 0.0007
x2 = 0.8817 | 1.3951 ± 0.0007
x2 = 0.9589 | 1.379 ± 0.0007

[4]
Details | mass density, 293.15 K [kg/m3] | mass density, 298.15 K [kg/m3] | mass density, 303.15 K [kg/m3] | viscosity, 298.15 K [mPa·s]
x2 = 0.0479 | 882.96 ± 0.33 | 878.72 ± 0.33 | 874.46 ± 0.33 | –
x2 = 0.0852 | – | – | – | 0.7491 ± 0.0084
x2 = 0.1264 | 888.76 ± 0.33 | 884.42 ± 0.32 | 880.07 ± 0.32 | –
x2 = 0.1881 | – | – | – | 0.7412 ± 0.0083
x2 = 0.2399 | 898.21 ± 0.31 | 893.74 ± 0.31 | 889.26 ± 0.31 | –
x2 = 0.2447 | – | – | – | 0.7448 ± 0.0082
x2 = 0.2632 | 900.31 ± 0.31 | 895.82 ± 0.31 | 891.31 ± 0.31 | –
x2 = 0.3036 | 904.17 ± 0.31 | 899.62 ± 0.31 | 895.06 ± 0.3 | –
x2 = 0.3206 | – | – | – | 0.7457 ± 0.0081
x2 = 0.3894 | – | – | – | 0.7476 ± 0.0081
x2 = 0.4089 | 915.71 ± 0.3 | 911.04 ± 0.3 | 906.34 ± 0.3 | –
x2 = 0.4323 | 918.49 ± 0.3 | 913.77 ± 0.3 | 909.03 ± 0.3 | –
x2 = 0.4729 | – | – | – | 0.7532 ± 0.008
x2 = 0.479 | 924.47 ± 0.31 | 919.7 ± 0.3 | 914.91 ± 0.3 | –
x2 = 0.5609 | 935.9 ± 0.32 | 930.9 ± 0.3 | 926.08 ± 0.28 | –
x2 = 0.5694 | – | – | – | 0.7667 ± 0.008
x2 = 0.6332 | 947.71 ± 0.32 | 942.68 ± 0.3 | 937.66 ± 0.28 | –
x2 = 0.6388 | – | – | – | 0.7838 ± 0.008
x2 = 0.7151 | – | – | – | 0.8113 ± 0.0081
x2 = 0.7184 | 964.07 ± 0.33 | 958.92 ± 0.3 | 953.75 ± 0.28 | –
x2 = 0.7912 | 980.62 ± 0.34 | 975.33 ± 0.3 | 970.03 ± 0.27 | –
x2 = 0.8031 | – | – | – | 0.8592 ± 0.0083
x2 = 0.8814 | 1005.53 ± 0.37 | 1000.08 ± 0.3 | 994.74 ± 0.25 | –
x2 = 0.8817 | – | – | – | 0.9274 ± 0.0085
x2 = 0.9589 | – | – | – | 1.035 ± 0.009
x2 = 0.9652 | 1034.87 ± 0.31 | 1029.28 ± 0.31 | 1023.69 ± 0.31 | –

Cc1cccc(C)c1 [1,3-dimethylbenzene]
Details | mass density [kg/m3] | refractive index | viscosity [mPa·s]
[1] | 859.88 ± 0.24 | – | 0.589 ± 0.008
[2] | – | 1.4944 ± 0.0008 | –

Cc1cccc(C)c1 [1,3-dimethylbenzene] + CC(=O)O
[3]
Details | refractive index
x2 = 0.0962 | 1.4877 ± 0.0013
x2 = 0.1625 | 1.4829 ± 0.0013
x2 = 0.3223 | 1.4682 ± 0.0013
x2 = 0.3797 | 1.4616 ± 0.0013
x2 = 0.4773 | 1.4523 ± 0.0013
x2 = 0.557 | 1.4424 ± 0.0013
x2 = 0.6405 | 1.4319 ± 0.0013
x2 = 0.7182 | 1.421 ± 0.0012
x2 = 0.7955 | 1.4066 ± 0.0012
x2 = 0.8721 | 1.3931 ± 0.0012
x2 = 0.9649 | 1.3773 ± 0.0012

[4]
Details | mass density, 293.15 K [kg/m3] | mass density, 298.15 K [kg/m3] | mass density, 303.15 K [kg/m3] | viscosity, 298.15 K [mPa·s]
x2 = 0.0777 | 869.99 ± 0.33 | 865.62 ± 0.33 | 861.24 ± 0.33 | –
x2 = 0.0962 | – | – | – | 0.5885 ± 0.0076
x2 = 0.1623 | 876.98 ± 0.33 | 872.54 ± 0.32 | – | –
x2 = 0.1625 | – | – | – | 0.5929 ± 0.0076
x2 = 0.2143 | 881.73 ± 0.32 | 877.22 ± 0.32 | 872.69 ± 0.31 | –
x2 = 0.2833 | 888.6 ± 0.32 | 884 ± 0.31 | 879.39 ± 0.31 | –
x2 = 0.3223 | – | – | – | 0.6061 ± 0.0075
x2 = 0.35 | 895.97 ± 0.31 | 891.29 ± 0.31 | 886.59 ± 0.31 | –
x2 = 0.3797 | – | – | – | 0.6144 ± 0.0075
x2 = 0.3896 | 900.67 ± 0.31 | 895.94 ± 0.31 | 891.18 ± 0.3 | –
x2 = 0.4773 | – | – | – | 0.6308 ± 0.0075
x2 = 0.4801 | 912.73 ± 0.32 | 907.88 ± 0.3 | 903 ± 0.29 | –
x2 = 0.557 | – | – | – | 0.6504 ± 0.0075
x2 = 0.5621 | 925.38 ± 0.32 | 920.41 ± 0.3 | 915.43 ± 0.29 | –
x2 = 0.6204 | 935.7 ± 0.32 | 930.66 ± 0.3 | 925.59 ± 0.29 | –
x2 = 0.6405 | – | – | – | 0.6798 ± 0.0076
x2 = 0.7182 | – | – | – | 0.7206 ± 0.0077
x2 = 0.7214 | 956.29 ± 0.35 | 951.08 ± 0.3 | 945.86 ± 0.26 | –
x2 = 0.7955 | – | – | – | 0.7754 ± 0.0079
x2 = 0.8155 | 980.67 ± 0.34 | 975.31 ± 0.3 | 969.94 ± 0.27 | –
x2 = 0.8721 | – | – | – | 0.8578 ± 0.0082
x2 = 0.8758 | 999.34 ± 0.36 | 993.89 ± 0.31 | 988.44 ± 0.26 | –
x2 = 0.9649 | – | – | – | 1.023 ± 0.0089
x2 = 0.9672 | 1034.28 ± 0.31 | 1028.66 ± 0.31 | 1023.08 ± 0.31 | –

Cc1ccc(C)cc1 [1,4-dimethylbenzene]
Details | mass density [kg/m3] | refractive index | viscosity [mPa·s]
[1] | 856.68 ± 0.24 | – | 0.609 ± 0.008
[2] | – | 1.4929 ± 0.0008 | –

Cc1ccc(C)cc1 [1,4-dimethylbenzene] + CC(=O)O
[3]
Details | refractive index
x2 = 0.0863 | 1.4874 ± 0.0007
x2 = 0.173 | 1.4805 ± 0.0007
x2 = 0.2386 | 1.4748 ± 0.0007
x2 = 0.3096 | 1.4682 ± 0.0007
x2 = 0.3987 | 1.4598 ± 0.0007
x2 = 0.4897 | 1.4498 ± 0.0007
x2 = 0.5621 | 1.4414 ± 0.0007
x2 = 0.6323 | 1.4325 ± 0.0007
x2 = 0.7212 | 1.4202 ± 0.0007
x2 = 0.7965 | 1.4084 ± 0.0007
x2 = 0.8784 | 1.3939 ± 0.0007
x2 = 0.955 | 1.3791 ± 0.0007

[4]
Details | mass density, 293.15 K [kg/m3] | mass density, 298.15 K [kg/m3] | mass density, 303.15 K [kg/m3] | viscosity, 298.15 K [mPa·s]
x2 = 0.0415 | 864.09 ± 0.33 | 859.71 ± 0.34 | 855.31 ± 0.34 | –
x2 = 0.0863 | – | – | – | 0.6099 ± 0.0077
x2 = 0.1166 | 870.08 ± 0.33 | 865.62 ± 0.33 | 861.15 ± 0.33 | –
x2 = 0.157 | 873.55 ± 0.32 | 869.05 ± 0.32 | 864.53 ± 0.32 | –
x2 = 0.1651 | 874.28 ± 0.32 | 869.76 ± 0.32 | 865.24 ± 0.32 | –
x2 = 0.173 | – | – | – | 0.6095 ± 0.0077
x2 = 0.2386 | – | – | – | 0.6117 ± 0.0076
x2 = 0.2466 | 882 ± 0.32 | 877.4 ± 0.32 | 872.79 ± 0.32 | –
x2 = 0.2659 | 884.01 ± 0.32 | 879.38 ± 0.32 | 874.76 ± 0.31 | –
x2 = 0.3096 | – | – | – | 0.6159 ± 0.0076
x2 = 0.3246 | 890.49 ± 0.32 | 885.78 ± 0.31 | 881.08 ± 0.31 | –
x2 = 0.3987 | – | – | – | 0.625 ± 0.0075
x2 = 0.4234 | 902.44 ± 0.31 | 897.64 ± 0.31 | 892.81 ± 0.3 | –
x2 = 0.4717 | 909.04 ± 0.31 | 904.17 ± 0.31 | 899.29 ± 0.3 | –
x2 = 0.4897 | – | – | – | 0.6398 ± 0.0075
x2 = 0.5505 | 921.33 ± 0.32 | 916.35 ± 0.3 | 911.38 ± 0.29 | –
x2 = 0.5621 | – | – | – | 0.6575 ± 0.0076
x2 = 0.6323 | – | – | – | 0.68 ± 0.0076
x2 = 0.6435 | 938.19 ± 0.33 | 933.07 ± 0.3 | 927.95 ± 0.27 | –
x2 = 0.7212 | – | – | – | 0.7243 ± 0.0077
x2 = 0.7299 | 957.01 ± 0.34 | 951.78 ± 0.3 | 946.53 ± 0.27 | –
x2 = 0.7965 | – | – | – | 0.7753 ± 0.0079
x2 = 0.8099 | 977.97 ± 0.35 | 972.61 ± 0.3 | 967.24 ± 0.27 | –
x2 = 0.8784 | – | – | – | 0.8675 ± 0.0082
x2 = 0.8851 | 1001.76 ± 0.36 | 996.29 ± 0.31 | 990.81 ± 0.26 | –
x2 = 0.955 | – | – | – | 1.003 ± 0.0088
x2 = 0.9601 | 1030.99 ± 0.31 | 1025.4 ± 0.31 | 1019.76 ± 0.31 | –
